# Assay results reported in patent US20210346459A1, “Application of Dalargin for the prevention of VRIs and prevention of the development of complications during VRIs” (priority 2020, published 2021).
# Read-outs that look alike come from different tables or passages of the source. Marks after values point to notes of the source that are not given here. Square brackets hold non-standard residues; d marks the D form. Peptide text beside a SMILES is read from it.
# Experiments:
# influenza = type: in vivo, human; conditions: Example 9, 4 relatives; 0.02% solution inhaled once a day, 1 mg/day; 7 days
# human adenovirus 5 = conditions: for Virus titer Ad5 (adenovirus): virus control 4.5
# [1] = system: influenza virus A/California/04/2009; type: in vivo, mice
# influenza virus A = type: in vivo, human
# [2] = system: influenza virus A/Puerto Rico/8/34 (H1N1); type: in vivo, Balb/c mice
# [3] = in vivo; cited from earlier work
# in vitro = conditions: dog
# [4] = Clinical testing of inhalation: cough and shortness of breath; type: in vivo, human
# Source text: Mu and delta receptors are found in the cough centre of the medulla, and systemic application of […] of these receptors inhibits the cough reflex. This usually also affects other organs and zones of the brain that contain opioid receptors. Additionally, since receptors of this group are found in peripheral neural pathways, Dalargin can also affect the conduction of signals along these neural pathways. Dalargin inhalation mostly produces local effects of short-lived metabolites of the peptide on peripheral opioid receptors, which manifests itself in reduced response of receptor cells to stimulation and reduced intensity of the signal transmitted to the cough centre. […] A certain local analgesic effect also improves the overall condition of the patient. […] This, in turn, alleviates the irritation of the respiratory tract, reduces the loss of the inhaled product due to coughing and improves the patients' quality of life.
# Shortness of breath is one of the most common symptoms of VRIs. The patient is often unable to perform the most basic actions without experiencing shortness of breath, panting, and a sensation of lacking air. Descriptions of various methods of the treatment of shortness of breath report positive effects of systemic administration of certain opioid receptor agonists. […] Systemically administered opioids are also recommended for treating shortness of breath in such patients, but side effects may limit their use. Despite the positive effect, uses of such therapies are severely limited due to typical side effects and restrictions on the sales of opioid drugs. Inhalation of Dalargin is additionally associated with improved quality of respiration. […] Unlike classical opioids, these metabolites are short-lived and only act locally, in the zone where the inhaled aerosol is deposited in the lungs, predominantly in the larynx, bronchi and trachea.
# [5] = application to skin or mucosae at any concentration; cited from earlier work
# [6] = Effect of low pH acetate buffer on antiviral and immunotropic activity; conditions: low pH acetate-based buffer solution; nose, nasopharynx, oropharynx, oral cavity or sublingual
# Source text: The preferred type of buffer salts is acetate buffer, which contains sodium acetate and acetic acid, with a preferred pH value of 4.0-5.5. Citrate buffer can also be used. […] Additionally, a physiologically active buffer on the basis of sodium hydrogen phosphate dihydrate and sodium dihydrogen phosphate dihydrate can be used; however, this buffer is not sufficiently efficient in the pH range from 4.0 to 5.5 in terms of its buffer capacity.
# [7] = Group 4: nasally once a day 0.2 mg/kg, concentration 0.08%
# [8] = Group 4: nasally once a day 0.2 mg/kg, concentration 0.08%, 30 animals
# [9] = Group 5: nasally and posterior pharyngeal wall (PS) once daily 0.5 mg/kg, concentration 0.1%
# [10] = Group 5: nasally and posterior pharyngeal wall (PS) once daily 0.5 mg/kg, concentration 0.1%, 30 animals
# [11] = Group 6: inhalation of 1% solution 40 min once a day, 0.5 mg/kg
# [12] = Group 6: inhalation of 1% solution 40 min once a day, 0.5 mg/kg, 30 animals
# [13] = Group 7: inhalation of 3% solution 45 min once a day, 1.74 mg/kg
# [14] = Group 7: inhalation of 3% solution 45 min once a day, 1.74 mg/kg, 30 animals
# [15] = Group 9: inhalation of 3% solution 45 min twice a day, prophylactic only
# [16] = Group 9: inhalation of 3% solution 45 min twice a day, prophylactic only, 30 animals
# [17] = Group 10: nasally + pharyngeal spray (PS) 0.5 mg/kg once a day, prophylactic only
# [18] = Group 10: nasally + pharyngeal spray (PS) 0.5 mg/kg once a day, prophylactic only, 30 animals
# [19] = Example 10, patient V, A/California/07/2009 (H1N1), 0.1% solution inhaled twice a day, 4 mg/day, with Oseltamivir
# [20] = Group 4: inhalation of 1% solution 14 min twice a day, 0.36 mg/kg
# [21] = Group 4: inhalation of 1% solution 14 min twice a day, 0.36 mg/kg, 30 animals
# [22] = Group 5: inhalation of 3% solution 45 min twice a day, 1.74 mg/kg
# [23] = Group 5: inhalation of 3% solution 45 min twice a day, 1.74 mg/kg, 30 animals
# [24] = Group 6: inhalation of 5% solution 55 min twice a day, 3.54 mg/kg
# [25] = Group 6: inhalation of 5% solution 55 min twice a day, 3.54 mg/kg, 30 animals
# [26] = Group 8: inhalation of 3% solution 45 min twice a day, prophylactic only
# [27] = Group 8: inhalation of 3% solution 45 min twice a day, prophylactic only (days 3, 2, 1 and 1 hour before challenge), 30 animals
# [28] = Group 9: nasally + pharyngeal spray 0.5 mg/kg, prophylactic only
# [29] = Group 9: nasally + pharyngeal spray 0.5 mg/kg, prophylactic only, 30 animals
smiles,measurement,setting,value
"CC(C)C[C@H](NC(=O)[C@H](Cc1ccccc1)NC(=O)CNC(=O)[C@@H](C)NC(=O)[C@@H](N)Cc1ccc(O)cc1)C(=O)N[C@@H](CCCNC(=N)N)C(=O)O [Dalargin, tyrosyl-D-alanyl-glycyl-phenylalanyl-leucyl-arginine diacetate] (H-Y[dA]GFLR-OH)",Signs or symptoms of influenza in household contacts,influenza,"None of the relatives of patient V who were in contact with them exhibited catarrhal signs, hyperthermia or other signs or symptoms of influenza"
same,IC50,human adenovirus 5,2.5 µg/mL
same,Virus titer Ad5 (adenovirus),human adenovirus 5; 0.4 μg/mL,4.5 lg TCID50/0.1 mL
same,Virus titer Ad5 (adenovirus),human adenovirus 5; 1.1 μg/mL,4.5 lg TCID50/0.1 mL
same,Virus titer Ad5 (adenovirus),human adenovirus 5; 3.3 μg/mL,4.0 lg TCID50/0.1 mL
same,Virus titer Ad5 (adenovirus),human adenovirus 5; 10 μg/mL,4.0 lg TCID50/0.1 mL
same,Virus titer Ad5 (adenovirus),human adenovirus 5; 30 μg/mL,3.5 lg TCID50/0.1 mL
same,SI,"human adenovirus 5; CC50/IC50, Ad5 (adenovirus)",12
same,Antiviral properties (in words),"human adenovirus 5; adenovirus, Vero",dose-dependent reduction of the infectious activity
same,"Mortality, %",[1]; [7],56.67%
same,"Protective index, %",[1]; [7],41.38%
same,Mortality by day 5,[1]; [8],2
same,Mortality by day 6,[1]; [8],4
same,Mortality by day 7,[1]; [8],9
same,Mortality by day 9,[1]; [8],1
same,Mortality by day 11,[1]; [8],1
same,Residue,[1]; [8],13
same,"Mortality, %",[1]; [9],40.00%
same,"Protective index, %",[1]; [9],58.62%
same,Mortality by day 6,[1]; [10],1
same,Mortality by day 7,[1]; [10],2
same,Mortality by day 8,[1]; [10],3
same,Mortality by day 9,[1]; [10],5
same,Mortality by day 10,[1]; [10],1
same,Residue,[1]; [10],18
same,"Mortality, %",[1]; [11],6.67%**
same,"Protective index, %",[1]; [11],93.10%
same,Mortality by day 7,[1]; [12],1
same,Mortality by day 8,[1]; [12],1
same,Residue,[1]; [12],28
same,"Mortality, %",[1]; [13],10.00%**
same,"Protective index, %",[1]; [13],89.66%
same,Mortality by day 7,[1]; [14],1
same,Mortality by day 8,[1]; [14],1
same,Mortality by day 9,[1]; [14],1
same,Residue,[1]; [14],27
same,"Mortality, %",[1]; [15],30.00%
same,"Protective index, %",[1]; [15],68.97%
same,Mortality by day 6,[1]; [16],2
same,Mortality by day 7,[1]; [16],3
same,Mortality by day 8,[1]; [16],2
same,Mortality by day 9,[1]; [16],2
same,Residue,[1]; [16],21
same,"Mortality, %",[1]; [17],46.67%
same,"Protective index, %",[1]; [17],51.72%
same,Mortality by day 5,[1]; [18],2
same,Mortality by day 6,[1]; [18],4
same,Mortality by day 7,[1]; [18],2
same,Mortality by day 8,[1]; [18],3
same,Mortality by day 9,[1]; [18],2
same,Mortality by day 10,[1]; [18],1
same,Residue,[1]; [18],16
same,"Efficacy compared with other antiviral drugs (Ingavirin, Arbidol)","[1]; administered by inhalation, prevention of influenza pneumonia",superior to other antiviral drugs
same,"Protective effect against infection, share of animals","[1]; preventive administration, depending on the route of administration",50-70%
same,"Complete resolution of symptoms, day after start of therapy","influenza virus A; Example 8, patient K, influenza pneumonia A/Aichi/2/68 (H3N2), 0.02% solution inhaled twice a day, 1 mg/day, with Oseltamivir 75 mg twice a day",7 days
same,Duration of fever,influenza virus A; [19],3 days
same,Duration of intoxication symptoms,influenza virus A; [19],2 days
same,Duration of the disease as a whole (complete resolution of symptoms),influenza virus A; [19],5 days
same,Protective effect on lung tissue and lung function compared with comparators,[2]; Dalargin inhalation,superior to that of Tamiflu and Kagocel
same,"Mortality, %",[2]; [20],10.00%
same,"Protective index, %",[2]; [20],88.46%
same,Mortality by day 9,[2]; [21],2
same,Mortality by day 11,[2]; [21],1
same,Residue,[2]; [21],27*
same,"Mortality, %",[2]; [22],6.67%
same,"Protective index, %",[2]; [22],92.30%
same,Mortality by day 8,[2]; [23],1
same,Mortality by day 10,[2]; [23],1
same,Residue,[2]; [23],28*
same,"Mortality, %",[2]; [24],6.67%
same,"Protective index, %",[2]; [24],92.30%
same,Mortality by day 7,[2]; [25],1
same,Mortality by day 10,[2]; [25],1
same,Residue,[2]; [25],28*
same,"Mortality, %",[2]; [26],40.00%
same,"Protective index, %",[2]; [26],53.85%
same,Mortality by day 5,[2]; [27],1
same,Mortality by day 6,[2]; [27],3
same,Mortality by day 7,[2]; [27],2
same,Mortality by day 8,[2]; [27],3
same,Mortality by day 9,[2]; [27],3
same,Residue,"[2]; Group 8: inhalation of 3% solution 45 min twice a day, prophylactic only, 30 animals",18
same,"Mortality, %",[2]; [28],50.00%
same,"Protective index, %",[2]; [28],42.31%
same,Mortality by day 6,[2]; [29],4
same,Mortality by day 7,[2]; [29],4
same,Mortality by day 8,[2]; [29],4
same,Mortality by day 9,[2]; [29],2
same,Mortality by day 10,[2]; [29],1
same,Residue,[2]; [29],15
same,"Histological features of lung tissue, day 3 after challenge","[2]; oedema, neutrophilic infiltration, collapsed alveolae relative to control",far less pronounced
same,Efficacy attributed exclusively to the prophylactic protective effect,"[2]; preventive administration, without the therapeutic component",50%
same,"Histological features of lung tissue, day 12",[2]; surviving animals,One half of the animals receiving Dalargin exhibited no signs of pathology
same,LD50,[3],2.5 g/kg
same,CC50,in vitro,≥ 30 µg/mL
same,Duration of reduced coughing severity,[4],2 to 4 h
same,Cough reported by patients,[4]; clinical testing,alleviation or elimination of cough
same,Shortness of breath,[4]; investigational clinical use,significantly reduced shortness of breath
same,Local irritation,[5],does not produce local irritation
same,Fold higher specific antiviral and immunotropic activity,[6],2-4 times
